Data published in ChEMBL document CHEMBL3861999, “Investigation of C-5 alkynyl (alkynyloxy or hydroxymethyl) and/or N-3 propynyl substituted pyrimidine nucleoside analogs as a new class of antimicrobial agents” (Bioorg Med Chem, 2016).
≈ marks a conversion by molar mass, not a printed value.

Columns and labels:
[1] = test system: Mycobacterium avium; test: Growth inhibition of Mycobacterium avium ATCC 25291 at 200 ug/ml after 6 days by microplate alamar blue assay; format: functional, Mycobacterium avium subsp. avium ATCC 25291; settings: ATCC 25291, 144 h, read-out: GI
[2] = test system: Staphylococcus aureus; test: Growth inhibition of Staphylococcus aureus ATCC 25923 at 100 ug/ml after 6 days in presence of 0.1 ug/ml of gentamicin by microplate alamar blue assay; format: functional
[3] = test system: Staphylococcus aureus; test: Growth inhibition of Staphylococcus aureus ATCC 25923 assessed as fractional inhibitory concentration index at 100 ug/ml after 6 days in presence of 0.1 ug/ml of gentamicin by microplate alamar blue assay; format: functional
[4] = test system: Escherichia coli; test: Antibacterial activity against Escherichia coli ATCC 25922 after 16 to 20 hrs by broth microdilution method; format: functional
[5] = test system: Mycobacterium tuberculosis; test: Growth inhibition of Mycobacterium tuberculosis H37Ra at 200 ug/ml after 6 days by microplate alamar blue assay; format: functional; settings: 144 h, read-out: GI
[6] = test system: Staphylococcus aureus; test: Antibacterial activity against Staphylococcus aureus ATCC 25923 after 16 to 20 hrs by broth microdilution method; format: functional; settings: for MIC: read-out: MIC100
[7] = test system: Enterococcus faecalis; test: Growth inhibition of Enterococcus faecalis ATCC 29212 assessed as fractional inhibitory concentration index at 100 ug/ml after 6 days in presence of 4.5 ug/ml of gentamicin by microplate alamar blue assay; format: functional
[8] = test system: Enterococcus faecalis; test: Antibacterial activity against Enterococcus faecalis ATCC 29212 after 16 to 20 hrs by broth microdilution method; format: functional; settings: for MIC: read-out: MIC100
[9] = test system: Salmonella typhimurium; test: Antibacterial activity against clinical isolates of Salmonella typhimurium after 16 to 20 hrs by broth microdilution method; format: functional, Salmonella enterica subsp. enterica serovar Typhimurium; settings: for MIC: Salmonella enterica, read-out: MIC100
[10] = test system: Enterococcus faecalis; test: Growth inhibition of Enterococcus faecalis ATCC 29212 at 100 ug/ml after 6 days in presence of 4.5 ug/ml of gentamicin by microplate alamar blue assay; format: functional
[11] = Cytotoxicity against African green monkey Vero cells assessed as decrease in cell viability after 3 days by XTT assay; format: toxicity, cell-based; settings: chlorocebus sabaeus
[12] = test system: Pseudomonas aeruginosa; test: Antibacterial activity against Pseudomonas aeruginosa ATCC 13048 after 16 to 20 hrs by broth microdilution method; format: functional
[13] = test system: Mycobacterium avium; test: Growth inhibition of Mycobacterium avium ATCC 25291 at 2 ug/ml after 6 days by microplate alamar blue assay; format: functional, Mycobacterium avium subsp. avium ATCC 25291; settings: ATCC 25291, 144 h, read-out: GI
[14] = test system: Mycobacterium tuberculosis; test: Growth inhibition of Mycobacterium tuberculosis H37Ra at 0.5 ug/ml after 6 days by microplate alamar blue assay; format: functional; settings: 144 h, read-out: GI
[15] = test system: Mycobacterium tuberculosis; test: Growth inhibition of Mycobacterium tuberculosis H37Ra at 0.002 ug/ml after 6 days by microplate alamar blue assay; format: functional; settings: 144 h, read-out: GI
[16] = test system: Mycobacterium tuberculosis; test: Growth inhibition of Mycobacterium tuberculosis H37Ra at 0.012 ug/ml after 6 days by microplate alamar blue assay; format: functional; settings: 144 h, read-out: GI
[17] = test system: Mycobacterium tuberculosis; test: Growth inhibition of Mycobacterium tuberculosis H37Ra at 1 ug/ml after 6 days by microplate alamar blue assay; format: functional; settings: 144 h, read-out: GI
[18] = test system: Mycobacterium tuberculosis; test: Inhibition of Mycobacterium tuberculosis H37Ra infected in human THP1 cells assessed as reduction in surviving bacteria at 1 ug/ml after 7 days by serial dilution method; format: functional; settings: THP-1, 168 h
[19] = test system: Mycobacterium tuberculosis; test: Growth inhibition of Mycobacterium tuberculosis H37Ra at 0.2 ug/ml after 6 days by microplate alamar blue assay; format: functional; settings: 144 h, read-out: GI
[20] = test system: Mycobacterium tuberculosis; test: Growth inhibition of Mycobacterium tuberculosis H37Ra at 0.006 ug/ml after 6 days by microplate alamar blue assay; format: functional; settings: 144 h, read-out: GI
[21] = test system: Escherichia coli; test: Growth inhibition of Escherichia coli ATCC 25922 at 10 to 200 ug/ml after 16 to 20 hrs by broth microdilution method; format: functional
[22] = test system: Mycobacterium tuberculosis; test: Growth inhibition of Mycobacterium tuberculosis H37Ra at 100 ug/ml after 6 days in presence of 0.2 ug/ml of isoniazid by microplate alamar blue assay; format: functional
[23] = test system: Mycobacterium tuberculosis; test: Growth inhibition of Mycobacterium tuberculosis H37Ra at 50 ug/ml after 6 days by microplate alamar blue assay; format: functional; settings: 144 h, read-out: GI
[24] = test system: Mycobacterium tuberculosis; test: Growth inhibition of Mycobacterium tuberculosis H37Ra assessed as fractional inhibitory concentration index at 50 ug/ml after 6 days in presence of 0.012 ug/ml of isoniazid and 0.002 ug/ml of rifampicin by microplate alamar blue assay; format: functional
[25] = test system: Pseudomonas aeruginosa; test: Growth inhibition of Pseudomonas aeruginosa ATCC 13048 at 10 to 200 ug/ml after 16 to 20 hrs by broth microdilution method; format: functional
[26] = test system: Mycobacterium tuberculosis; test: Growth inhibition of Mycobacterium tuberculosis H37Ra assessed as fractional inhibitory concentration index at 100 ug/ml after 6 days in presence of 0.2 ug/ml of isoniazid by microplate alamar blue assay; format: functional
[27] = test system: Mycobacterium tuberculosis; test: Growth inhibition of Mycobacterium tuberculosis H37Ra at 75 ug/ml after 6 days by microplate alamar blue assay; format: functional; settings: 144 h, read-out: GI
[28] = test system: Mycobacterium tuberculosis; test: Growth inhibition of Mycobacterium tuberculosis H37Ra at 50 ug/ml after 6 days in presence of 0.012 ug/ml of isoniazid and 0.002 ug/ml of rifampicin by microplate alamar blue assay; format: functional
[29] = test system: Mycobacterium tuberculosis; test: Growth inhibition of Mycobacterium tuberculosis H37Ra assessed as fractional inhibitory concentration index at 75 ug/ml after 6 days in presence of 0.2 ug/ml of isoniazid by microplate alamar blue assay; format: functional
[30] = test system: Mycobacterium tuberculosis; test: Growth inhibition of Mycobacterium tuberculosis H37Ra at 50 ug/ml after 6 days in presence of 0.006 ug/ml of isoniazid and 0.002 ug/ml of rifampicin by microplate alamar blue assay; format: functional
[31] = test system: Mycobacterium tuberculosis; test: Growth inhibition of Mycobacterium tuberculosis H37Ra at 75 ug/ml after 6 days in presence of 0.2 ug/ml of isoniazid by microplate alamar blue assay; format: functional
[32] = test system: Mycobacterium tuberculosis; test: Inhibition of Mycobacterium tuberculosis H37Ra infected in human THP1 cells assessed as reduction in surviving bacteria at 200 ug/ml after 7 days by serial dilution method; format: functional; settings: THP-1, 168 h
[33] = test system: Mycobacterium tuberculosis; test: Growth inhibition of Mycobacterium tuberculosis H37Ra at 100 ug/ml after 6 days by microplate alamar blue assay; format: functional; settings: 144 h, read-out: GI
[34] = test system: Mycobacterium tuberculosis; test: Growth inhibition of Mycobacterium tuberculosis H37Ra assessed as fractional inhibitory concentration index at 50 ug/ml after 6 days in presence of 0.006 ug/ml of isoniazid and 0.002 ug/ml of rifampicin by microplate alamar blue assay; format: functional

With `C#CCOc1cn([C@@H]2O[C@H](CO)[C@@H](O)[C@H]2F)c(=O)n(CC#C)c1=O` the inhibition of growth at 200 µg/mL [1] was 0%, the “growth inhibition (GI)” value [2] was 100% and the “fractional inhibitory concentration index (FICI)” value [3] was 0.7. The MIC ([4]; read-out: MIC100) was > 200 µg/mL, the inhibition of growth at 200 µg/mL [5] was 35% and the MIC [6] was 200 µg/mL (≈ 591 µM). The “fractional inhibitory concentration index (FICI)” value [7] was 0.86, the MIC [8] was 200 µg/mL (≈ 591 µM) and the MIC [9] was > 200 µg/mL. The “growth inhibition (GI)” value [10] was 100%, the CC50 at 72 h [11] was > 300 µg/mL and the MIC ([12]; read-out: MIC100) was > 200 µg/mL.
Work on `CC[C@H]1OC(=O)[C@H](C)[C@@H](O[C@H]2C[C@@](C)(OC)[C@@H](O)[C@H](C)O2)[C@H](C)[C@@H](O[C@@H]2O[C@H](C)C[C@H](N(C)C)[C@H]2O)[C@](C)(OC)C[C@@H](C)C(=O)[C@H](C)[C@@H](O)[C@]1(C)O` [CLARITHROMYCIN] yielded an inhibition of growth at 2 µg/mL [13] of 100%.
Work on `CO[C@H]1/C=C/O[C@@]2(C)Oc3c(C)c(O)c4c(O)c(c(/C=N/N5CCN(C)CC5)c(O)c4c3C2=O)NC(=O)/C(C)=C\C=C\[C@H](C)[C@H](O)[C@@H](C)[C@@H](O)[C@@H](C)[C@H](OC(C)=O)[C@@H]1C` [RIFAMPIN] yielded an inhibition of growth at 0.5 µg/mL [14] of 100%, an inhibition of growth at 2 µg/mL [13] of 90% and an inhibition of growth at 0.002 µg/mL [15] of 46.2%.
For GENTAMICIN, the MIC100 [4] was 1 µg/mL, the MIC100 [6] was 0.5 µg/mL and the MIC100 [8] was 12.5 µg/mL. The MIC100 ([9]; Salmonella enterica subsp. enterica serovar Typhimurium) was 1 µg/mL and the MIC100 [12] was 1 µg/mL.
In the case of `NNC(=O)c1ccncc1` [ISONIAZID], the inhibition of growth at 0.012 µg/mL [16] is reported as 7.22%, the inhibition of growth at 1 µg/mL [17] is reported as 100% and the inhibition at 1 µg/mL [18] is reported as > 90%. For the same compound, the inhibition of growth at 0.2 µg/mL [19] was 48.8% and the inhibition of growth at 0.006 µg/mL [20] was 1.47%.
For `CN[C@H](CC(C)C)C(=O)N[C@H]1C(=O)N[C@@H](CC(N)=O)C(=O)N[C@H]2C(=O)N[C@H]3C(=O)N[C@H](C(=O)N[C@H](C(=O)O)c4cc(O)cc(O)c4-c4cc3ccc4O)[C@H](O)c3ccc(c(Cl)c3)Oc3cc2cc(c3O[C@@H]2O[C@H](CO)[C@@H](O)[C@H](O)[C@H]2O[C@H]2C[C@](C)(N)[C@H](O)[C@H](C)O2)Oc2ccc(cc2Cl)[C@H]1O` [VANCOMYCIN], the MIC [6] was 1.5 µg/mL (≈ 1.04 µM) and the MIC [8] was 4.5 µg/mL (≈ 3.11 µM).
For `C#CCOc1cn([C@@H]2O[C@H](CO)[C@@H](O)[C@H]2F)c(=O)[nH]c1=O`, the “growth inhibition (GI)” value [21] was 0%, the inhibition of growth at 200 µg/mL [1] was 0% and the “growth inhibition (GI)” value [22] was 99.15%. The inhibition of growth at 50 µg/mL [23] was 2.51%, the “fractional inhibitory concentration index (FICI)” value [24] was 0.09 and the “growth inhibition (GI)” value [25] was 0%. For the same compound, the “fractional inhibitory concentration index (FICI)” value [26] was 0.03, the inhibition of growth at 75 µg/mL [27] was 1.15% and the “growth inhibition (GI)” value [28] was 97.81%. The inhibition of growth at 200 µg/mL [5] was 97%, the MIC [6] was > 200 µg/mL and the “fractional inhibitory concentration index (FICI)” value [29] was 0.56. For the same compound, the “growth inhibition (GI)” value [30] was 93.36%, the “growth inhibition (GI)” value [31] was 81.16% and the inhibition at 200 µg/mL [32] was 50%. For the same compound, the MIC [8] was > 200 µg/mL, the MIC [9] was > 200 µg/mL and the inhibition of growth at 100 µg/mL [33] was 3.15%. The CC50 at 72 h [11] was > 300 µg/mL and the “fractional inhibitory concentration index (FICI)” value [34] was 0.21.
